How the values were obtained:
[1] = test system: mouse leukemia L1210; test: Antitumor activity against L1210 cell-planted mice (T/C value); type: in vivo; conditions: intraperitoneal, CDF1 mice
Method: A portion of 1×10^5 mouse leukemia L1210 cells subcultured in DBA/2 mice were transplanted in the abdominal cavities of CDF1 mice (male, 6 weeks old, 6-10 animals/group). Each of the test compounds was intraperitoneally administered to the mice on the 1st, […] and 9th days after the day of transplantation. Each of the preparations was used after being dissolved in distilled water.
The antitumor activity of the platinum complexes against the L1210 cell-planted mice was evaluated based on the T/C value determined by the following equation. [formula]

[2] = test system: cisplatin-resistant L1210 cells; test: In vitro cytotoxic effect on cisplatin-resistant mouse leukemia L1210 cells (XTT colorimetric method); type: cell-based; conditions: read-out: 50% cell growth inhibition concentration (IC50), 37° C., 5 days
Method: A test of the in vitro cytotoxic effect of compound 15 and cisplatin on cisplatin-resistant mouse leukemia L1210 cells was conducted in the following manner.
1×10^5 cisplatin-resistant L1210 cells were seeded in a 96-well plate at 100 μl per well. About 100 μl of the drugs at graded dilutions was added to each well. Culturing was then performed at 37° C. for 5 days, and the cells were counted by the XTT colorimetric method.

[3] = test system: testicular carcinoma; conditions: cited from earlier work; for effectiveness against testicular carcinoma and the like (in words): in vivo
[4] = prior-art complexes; cited from earlier work

SMILES	T/C ([1]; 0.25 mg/kg) [%]	T/C ([1]; 0.5 mg/kg) [%]	T/C ([1]; 1 mg/kg) [%]	T/C ([1]; 2 mg/kg) [%]	T/C ([1]; 4 mg/kg) [%]	IC50 [2] [nM]	effectiveness against testicular carcinoma and the like (in words) [3]	potency when readministered to recurrent patients (in words) [3]	stability in aqueous solutions (in words) [4]
N.N.[Cl][Pt][Cl] [Cisplatin, cis-diamminedichloroplatinum(II) complex]	101	101	106	123	160	10.7	very effective	lowered potency	
N.N.O=C([O-])C1(C(=O)[O-])CCC1.[Pt+2] [carboplatin]							very effective	lowered potency	
O=C(O)c1ccc(C(=O)O)c(C(=O)O)c1 [trimellitic acid]									poor stability

— patent publication US5616613A, “Platinum(II) complex and malignant tumor treatment agent” (priority 1994, dated 1997)
